Source: US5057427A, “Method for resolution of stereoisomers” (Sepracor, Inc., priority 1988, dated 1991)
In brackets after ≈: the same amount, converted by molar mass. Where a name gives a salt, the structure may show the parent alone.

Columns and labels:
[1] = biological target: T1, Protease VIII: "Subtilopeptidase A" (subtilisin Carlsberg) (Enzyme B) (Bacillus licheniformis, UniProt P00780); experiment: Homogeneous aqueous enzymatic resolution (ester hydrolysis) with Enzyme B; format: biochemical; conditions: 100 mg enzyme B, 10 mmol ester in 100 ml 0.2 M phosphate buffer pH 7.0, 20-22° C., 20 hours
T1 sequence (P00780 106-379): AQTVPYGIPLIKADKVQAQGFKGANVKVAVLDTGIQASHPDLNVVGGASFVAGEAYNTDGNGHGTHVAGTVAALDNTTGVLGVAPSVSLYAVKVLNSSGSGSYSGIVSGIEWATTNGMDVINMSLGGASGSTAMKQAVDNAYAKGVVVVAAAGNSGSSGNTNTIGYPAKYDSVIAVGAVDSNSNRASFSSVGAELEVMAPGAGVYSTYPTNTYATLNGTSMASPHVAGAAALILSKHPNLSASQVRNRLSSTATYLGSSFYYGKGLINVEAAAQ

[2] = biological target: T2, Protease XVI: from Bacillus subtilis (Enzyme C) (Bacillus subtilis, UniProt P04189); experiment: Homogeneous aqueous enzymatic resolution (ester hydrolysis) with Enzyme C; format: biochemical; conditions: acid product; 100 mg enzyme C, 10 mmol ester in 100 ml 0.2 M phosphate buffer pH 7.0, 20-22° C., 20 hours
T2 sequence (P04189 107-381): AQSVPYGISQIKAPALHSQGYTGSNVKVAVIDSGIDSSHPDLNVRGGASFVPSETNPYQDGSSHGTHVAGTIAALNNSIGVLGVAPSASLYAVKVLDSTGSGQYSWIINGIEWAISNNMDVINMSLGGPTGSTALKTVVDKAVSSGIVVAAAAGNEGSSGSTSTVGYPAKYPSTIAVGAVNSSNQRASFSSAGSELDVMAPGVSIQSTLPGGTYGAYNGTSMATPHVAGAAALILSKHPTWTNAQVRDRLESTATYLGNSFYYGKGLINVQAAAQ

[3] = biological target: T3, Protease XXVII: "Nagarse" (Enzyme D) (Bacillus amyloliquefaciens, UniProt P00782); experiment: Homogeneous aqueous enzymatic resolution (ester hydrolysis) with Enzyme D; format: biochemical; conditions: 100 mg enzyme D, 10 mmol ester in 100 ml 0.2 M phosphate buffer pH 7.0, 20-22° C., 20 hours
T3 sequence (P00782 108-382): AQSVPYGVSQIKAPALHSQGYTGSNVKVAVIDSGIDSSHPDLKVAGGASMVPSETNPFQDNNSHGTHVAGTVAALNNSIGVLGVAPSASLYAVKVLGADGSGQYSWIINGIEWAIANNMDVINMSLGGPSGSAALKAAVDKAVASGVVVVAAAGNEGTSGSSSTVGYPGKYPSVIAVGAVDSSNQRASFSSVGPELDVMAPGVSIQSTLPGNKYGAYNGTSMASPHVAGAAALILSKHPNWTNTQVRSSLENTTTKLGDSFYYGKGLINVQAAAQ

[4] = tested on: protease Prozyme 6 (Enzyme F); experiment: Homogeneous aqueous enzymatic resolution (ester hydrolysis) with Enzyme F; format: biochemical, Asperqillus oryzae; conditions: 100 mg protease (F), 3.22 gm ester in 100 ml 0.2 M sodium phosphate buffer pH 7.0, room temperature, 20 hours
Procedure: (Prozyme 6) (F) added. The enzymatic reaction mixtures were capped and briefly shaken until all the substrate had dissolved, and the enzyme had completely dissolved or dispersed. […] Evaporation of the ether left a white solid. Rotations were measured at c=1 in CHCl3.
The enzymatic reaction mixtures were capped and briefly shaken until all the substrate had dissolved, and the enzyme had completely dissolved or dispersed. […] Evaporation of the ether left a white solid. Rotations were measured at c=1 in CHCl3.
The reaction was started by adding 100 mg of the protease (F) from the fungus Asperqillus oryzae (from Amano Enzyme Corporation, Prozyme 6, 60,000 units per mg of solid).
After 20 hours at room temperature, the solution was acidified to pH 2 and extracted with 3 volumes of diethyl ether. The aqueous phase was saved for subsequent workup. The ether phase was washed with two volumes of distilled water and then one volume of saturated sodium chloride, and then it was dried over MgSO4 and subsequently evaporated to dryness. The resolved ibuprofen product recovered was 930 mg of white powder, indicating 45% conversion of racemic ester to acid. The optical rotation was -0.580° (measured at c=1 in ethanol), indicating the R isomer of ibuprofen.
35 mg of protease Enzyme F, as the commercial preparation Prozyme 6, were added to the aqueous solution. The reaction flask was capped, and briefly shaken until all the enzyme had dissolved or dispersed. […] The resulting mixture was diluted with one volume of water and was extracted with diethyl ether (2 times 200 ml). The ether layers were combined and backwashed with water (2 times 200 ml), saturated NaCl solution (200 ml), and then dried over MgSO4.
In this control run, a 0.5 M ester solution of (1) was prepared in 325 ml of 0.1 M sodium phosphate buffer (pH 7.0). The reaction was started by adding 3 gm of the above enzyme (F). The pH was controlled at 7.0 with 8.22 M sodium hydroxide. After 6.49 hours at 30° C., 6.63 ml of hydroxide were added, indicating 37.7% conversion. […]

[5] = tested on: protease Prozyme 6 (Enzyme F); experiment: Asymmetric hydrolysis in an extractive dispersion reactor (hexane) with Enzyme F; format: biochemical, Asperqillus oryzae; conditions: 100 mg Prozyme 6, 3.38 gm ester in 100 ml 0.2 M sodium phosphate buffer pH 7.0 and 100 ml hexane, room temperature, 3.5 hours
Procedure: In this Example, the hexane was dispersed in the reaction vessel to extract the inhibitory ibuprofen acid as it is formed. The reaction was started by adding 100 mg of the protease from the fungus Asperqillus oryzae (from Amano Enzyme Corporation, Prozyme 6, 60,000 units per mg of solid).
After 3.5 hours at room temperature with vigorous stirring, the solution was acidified to pH 2 and extracted with 2 volumes of hexane. The aqueous phase was saved for subsequent workup. The hexane phase was dried over MgSO4 and evaporated to dryness. The resolved ibuprofen product so recovered consisted of 490 mg of white powder, indicating 24% conversion. The optical rotation was -0.568° (c=1.015 in ethanol), indicating the R isomer of ibuprofen.

[6] = tested on: Protease XXIII: from Aspergillus oryzae (Enzyme A); experiment: Homogeneous aqueous enzymatic resolution (ester hydrolysis) with Enzyme A; conditions: 100 mg enzyme A, 10 mmol ester in 100 ml 0.2 M phosphate buffer pH 7.0, 20-22° C., 20 hours
Procedure: 10.0 millimole (mmol) of ibuprofen substrate ester 1 (the methyl sulfonate derivative) was dissolved in 100 ml of 0.2 M phosphate buffer of the appropriate cation (sodium or potassium, to be the same as the substrate counterion) at pH 7.0. 100 mg of enzyme A, as the
commercial preparation, was added directly to this solution, and the reaction mixture was capped and then shaken briefly until all the enzyme preparation had dispersed or dissolved. The reaction mixture was then allowed to stand at ambient temperature (20°-22° C.) for 20 hours. […] The combined organic layers were backwashed twice with one volume of water, once with one volume of saturated NaCl solution, and then dried over MgSO4.
Evaporation of the ether under reduced pressure left the resolved ibuprofen acid product; no other purification was performed. The optical rotation was measured in EtOH at a concentration c=1.0 for the ibuprofen acid product.
In this Example, 0.010 mol of ibuprofen ester 3 (the propyl sulfonate derivative) was dissolved in 100 ml 0.2 M sodium phosphate buffer at pH 7.8, and 150 mg of the commercial enzyme A preparation was added. The reaction was then handled as described for Examples 6.2.1.1-6.2.1.7.
In this Example, 0.010 mol of ibuprofen ester 2 (the ethyl sulfonate ester in the form of its potassium salt) were dissolved in 125 ml of 0.2 M sodium phosphate buffer at pH 7.0, and 150 mg of enzyme A was added to the reaction mixture as the commercially supplied preparation. The reaction was allowed to proceed for 18 hours, and the resulting product mixture was then worked-up as described above for Examples 6.2.1.1-6.2.1.7.
150 mg of Protease XXIII (A), as the commercially available preparation, was added to the reaction mixture, the reaction vessel was capped, and the entire heterogeneous reaction mixture was shaken in a wrist-action shaker for 18 hours. […] This mixture was then extracted twice with 200 ml of diethyl ether. The combined organic layers were backwashed twice with one volume of water, once with one volume of saturated NaCl, and the organic phase was then dried over MgSO4. Evaporation of the ether under reduced pressure left the resolved naproxen acid. No further purification was performed. The optical rotation of the product was measured in CHCl3 at a concentration c=1.0.
0.010 mol of naproxen ester 8 (the potassium salt of the ethyl sulfonate ester) was dispersed in 125 ml of 0.2 M sodium phosphate buffer at pH 7.8. 150 mg of enzyme A, as the commercially available preparation, were added, and the reaction handled as described in Example 6.2.1.1.
0.010 mol of ibuprofen ester 6 (the compound) were dissolved in 100 ml of 0.2 M sodium phosphate buffer at pH 7.0. 100 mg of enzyme A was added as the commercially available preparation, and the reaction handled as described above in Examples 6.2.1.1-6.2.1.7.
2.0 gm (0.0058 mole) of naproxen ester 9 (the sulfomethyl compound) was dissolved in 400 ml of 50 mM sodium phosphate buffer at pH 7.5. To the reaction were added 100 mg of Protease XXIII (A) as the commercially available preparation. After the enzyme had dissolved, the reaction mixture was incubated at 25 degrees for 16 hours. The reaction mixture was then acidified to pH 1-2 by the careful dropwise addition of concentrated HCl, and then it was extracted with ether (3×150 ml). The aqueous layer was retained. The combined organic layers were backwashed with water (2×100 ml), and these aqueous washings were added to the previously retained aqueous layer of the reaction. The ether layer was then washed once with 100 ml of brine, and dried over MgSO4.

[7] = biological target: T1, Protease VIII: "Subtilopeptidase A" (subtilisin Carlsberg) (Enzyme B); experiment: Rates of hydrolysis of the two enantiomers (pH stat), Enzyme B; format: biochemical; conditions: 50 mM ester, 50 mM buffer pH 7.6, 0.1 ml of 50 mg/ml enzyme B
Procedure: (§1) 15 ml of a solution containing one enantiomer of the ester at a concentration of 50 mM, and Na buffer at 50 mM and pH 7.6 was observed using a pH stat device. 0.1 ml of a 50 mg/ml solution of enzyme B, made up from the commercially available preparation in 50 mM Na buffer at pH 7.6, were added. Rates of hydrolysis of both enantiomers of the ester compound were determined for the enzyme. The ratio of the rates of hydrolysis for the two enantiomers for the two enantiomers with respect to the enzyme indicate the stereospecificity of that enzyme's hydrolytic action on the racemic mixture of the ester. No evidence for the hydrolysis of the acetylthio ester portion of the substrate molecule was found.

[8] = tested on: Protease XIV: from Streptomyces griseus (Enzyme G); experiment: Rates of hydrolysis of the two enantiomers (pH stat), Enzyme G; format: biochemical; conditions: for Rate (rate of hydrolysis): 50 mM ester, 50 mM buffer pH 7.6, 0.1 ml of 50 mg/ml enzyme G
Procedure: as §1, with “mM, and Na3 PO4 buffer at” for “mM, and Na buffer at”, “solution of protease enzyme G,” for “solution of enzyme B,”, “protease enzyme G, made up” for “of enzyme B, made up”, “for the protease enzyme. The” for “for the enzyme. The”

[9] = tested on: Protease XXIII: from Aspergillus oryzae (Enzyme A); experiment: Rates of hydrolysis of the two enantiomers (pH stat), Enzyme A; format: biochemical; conditions: for Rate (rate of hydrolysis): 50 mM ester, 50 mM buffer pH 7.6, 0.1 ml of 50 mg/ml enzyme A
Procedure: as §1, with “enzyme A,” for “enzyme B,”, “mM Na3 PO4” for “mM Na”

[10] = tested on: Protease XXIV: bacterial protease (Enzyme H); experiment: Rates of hydrolysis of the two enantiomers (pH stat), Enzyme H; format: biochemical; conditions: for Rate (rate of hydrolysis): 50 mM ester, 50 mM buffer pH 7.6, 0.1 ml of 50 mg/ml Enzyme H
Procedure: as §1, with “Na3 PO4” for “Na”, “Enzyme H,” for “enzyme B,”

[11] = biological target: T3, Protease XXVII: "Nagarse" (Enzyme D); experiment: Rates of hydrolysis of the two enantiomers (pH stat), Enzyme D; format: biochemical; conditions: 50 mM ester, 50 mM buffer pH 7.6, 0.1 ml of 50 mg/ml enzyme D
Procedure: as §1, with “Na3 PO4” for “Na”, “D,” for “B,”, “thioacetyl” for “acetylthio”

[12] = Solubility by absorbance of saturated solutions at 262 nm; format: physicochemical; conditions: saturated solution, pH 7, 5 mM phosphate buffer, room temperature

In the case of `CC(C)Cc1ccc(C(C)C(=O)OCS(=O)(=O)O)cc1` (centres unmarked) [Compound 1, Sodium Salt of 4-Sulfomethyl Ester of 2-(4-Isobutylphenyl)propanoic Acid], the “% CONVERSION” value [1] is reported as 29.1%, the “% e.e.” value ([1]; acid product) is reported as 44.6% and the “% e.e.” value [2] is reported as 70.7%. For the same molecule, the “% CONVERSION” value [3] was 34.0%, the “% e.e.” value ([3]; acid product) was 37.7% and the “conversion of racemic ester to acid” value [4] was 45%. For the same molecule, the conversion [5] was 24%, the “% CONVERSION” value [6] was 37.9% and the “% e.e.” value ([6]; acid product) was greater than 99%.

For `CC(=O)SC[C@@H](C)C(=O)OCS(=O)(=O)O` [Compound 14, Potassium Salt of the Sulfomethyl Ester of D-(-)-S-3-Acetylthio-2-methylpropanoic Acid], the “Rate (rate of hydrolysis)” value [7] was 65 umols/hr/mg, the “Rate (rate of hydrolysis)” value [8] was 63 umols/hr/mg and the “Rate (rate of hydrolysis)” value [9] was 5.3 umols/hr/mg. For the same molecule, the “Rate (rate of hydrolysis)” value [10] was 61 umols/hr/mg and the “Rate (rate of hydrolysis)” value [11] was 27 umols/hr/mg.

In the case of `CC(=O)SC[C@H](C)C(=O)OCS(=O)(=O)O` [Compound 15, Potassium Salt of the Sulfomethyl Ester of L-(+)-S-3-Acetylthio-2-methylpropanoic Acid], the “Rate (rate of hydrolysis)” value [7] is reported as 135 umols/hr/mg, the “Rate (rate of hydrolysis)” value [8] is reported as 105 umols/hr/mg and the “Rate Ratio L/D” value ([8]; enzyme G, pH 7.6) is reported as 1.7. The “Rate (rate of hydrolysis)” value [9] was 12 umols/hr/mg, the “Rate Ratio L/D” value ([9]; enzyme A, pH 7.6) was 2.3 and the “Rate (rate of hydrolysis)” value [10] was 65 umols/hr/mg. For the same molecule, the “Rate Ratio L/D” value ([10]; Enzyme H, pH 7.6) was 1.1 and the “Rate (rate of hydrolysis)” value [11] was 29 umols/hr/mg.

For `COCCOC(=O)C(C)c1ccc(CC(C)C)cc1` (centres unmarked) [Methoxyethyl ester of ibuprofen], the Solubility [12] was 180 µM (≈ 47.6 µg/mL).
